In patent US20240417407A1, “FUROINDAZOLE DERIVATIVES AS GPR84 ANTAGONISTS” (Bayer Aktiengesellschaft, priority 2021, published 2024):

What follows are compounds tested against T1, human GPR84 receptor (Homo sapiens, UniProt Q9NQS5) (assay: cAMP HTRF assay for identification of cellular GPR84 antagonists). Conditions: CHO-K1 cells stably expressing human GPR84; Forskolin plus agonist 6-OAU; cAMP HTRF readout; average or median values.
T1 construct: frozen aliquots prepared by acCELLerate; host or cells: CHO-K1
T1 sequence (Q9NQS5 whole entry): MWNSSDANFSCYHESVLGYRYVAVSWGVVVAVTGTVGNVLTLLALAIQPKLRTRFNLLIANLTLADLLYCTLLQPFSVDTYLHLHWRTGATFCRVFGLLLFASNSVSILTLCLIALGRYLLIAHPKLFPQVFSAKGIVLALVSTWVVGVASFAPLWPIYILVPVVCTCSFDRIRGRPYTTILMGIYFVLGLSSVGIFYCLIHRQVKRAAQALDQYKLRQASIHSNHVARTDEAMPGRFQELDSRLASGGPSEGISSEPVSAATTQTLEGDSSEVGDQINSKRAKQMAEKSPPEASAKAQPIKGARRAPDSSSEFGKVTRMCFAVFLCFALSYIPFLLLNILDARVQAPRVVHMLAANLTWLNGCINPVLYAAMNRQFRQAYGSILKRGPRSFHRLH
Assay type: cell-based
From the text: cAMP HTRF® Assay for Identification of Cellular GPR84 Antagonists
By using a Homogenous Time-Resolved Fluorescence (HTRF®) based assay (#62AM5PEJ, Cisbio, Condolet, France) the inhibition of the Gi-coupled GPR84 receptor can be detected. CHO-K1 cells stably expressing human GPR84 receptor (purchased from DiscoveRx, now Eurofins) were used and treated with Forskolin (F6886, Sigma, Germany) to stimulate membrane adenylyl cyclases and thereby unspecific cAMP formation. Activation of the Gi-coupled GPR84 by a natural or small molecule agonist (e.g. 6-n-octyl aminouracile, inhouse) results in inhibition of cellular cAMP formation which can be released again by antagonists to this receptor. Detection and quantification of cellular cAMP levels in this HTRF assay is achieved by interaction between a fluorescent cAMP tracer (cAMP-d2) and an Eu-cryptate labelled anti-cAMP antibody. Following excitation at 337 nm this pairing allows for the generation of a fluorescence resonance energy transfer (FRET) between the partners and results in FRET induced emissions at 665 nm and 620 nm, the latter representing background signal by Eu-cryptate labelled anti-cAMP antibody. Maximal signal is obtained in the absence of any cellular cAMP (no competition for the binding of the tracer to the antibody). Given the combination of the Gi coupling properties of GPR84 and the competitive nature of the detection system agonist treatment should result in an increase in the HTRF signal due to lowered cAMP levels. Any signal decrease in the presence of Forskolin, agonist and compound is indicative of antagonist mediated abrogation of GPR84 signalling.
For the assay, frozen aliquots of CHO-K1 cells expressing hGPR84 (prepared by acCELLerate, Hamburg, Germany) were thawed and a cell suspension (1.67E+06 cells/mL) in assay media (Ham's F12 Nutrient Mix, Thermo Fisher Scientific, Waltham, USA; 5% fetal calf serum, Biomol, Hamburg, Germany) containing cAMP-d2 (dilution 1:20, supplied with the kit #62AM5PEJ, Cisbio, Condolet, France) was prepared. After recovery of cells for 20 minutes at 37° C., 3 μL/well cell suspension including cAMP-d2 were added to a pre-dispensed assay plate (Greiner Bio-One, Kremsmuenster, Austria) containing 50 nl/well test compound in 100% DMSO or 100% DMSO as control. This was followed by a 30 minutes incubation step at room temperature. […] The reaction was stopped by addition of 3 μL/well lysis buffer containing cAMP Eu-Cryptate antibody (dilution 1:20) (both supplied with the kit #62AM5PEJ, Cisbio, Condolet, France). To enable complete lysis, plates were incubated for 60 minutes at room temperature before measurement in an HTRF reader, e.g. a PHERAstar (BMG Labtech, Ortenberg, Germany).
From the fluorescence emissions at 665 nm (FRET) and at 620 nm (background signal of Eu-cryptate) the ratio (emission at 665 nm divided by emission at 620 nm×10000) was calculated and the data were normalized (reaction without test compound, only 100% DMSO=0% inhibition; all other assay components except agonist=100% inhibition). For dose response testing on the same microtiter plate, compounds were tested at 11 different concentrations in the range of 20 μM to 0.07 nM (20 μM, 5.7 μM, 1.6 μM, 0.47 μM, 0.13 μM, 38 nM, 11 nM, 3.1 nM, 0.89 nM, 0.25 and 0.07 nM; dilution series prepared before the assay at the level of the 100-fold conc. stock solutions by serial 1:3.5 dilutions in 100% DMSO) in duplicate values for each concentration. IC50 values were calculated by 4-parameter fitting using a commercial software package (Genedata Screener, Basel, Switzerland).
Examples were tested in selected biological assays one or more times. […]

Row | Structure (SMILES) | IC50
1 | Cc1ccnc(CNC(=O)c2oc3ccc4cn(C[C@H]5COCCO5)nc4c3c2C(F)(F)F)c1 [Example 19, 2-{[(2S)-1,4-dioxan-2-yl]methyl}-N-[(4-methylpyridin-2-yl)methyl]-8-(trifluoromethyl)-2H-furo[2,3-g]indazole-7-carboxamide] | 53 nM
2 | O=C(NCc1ccncn1)c1oc2ccc3cn(C[C@H]4COCCO4)nc3c2c1C(F)(F)F [Example 16] | 120 nM
3 | O=C(NCc1cocn1)c1oc2ccc3cn(C[C@H]4COCCO4)nc3c2c1C(F)(F)F [Example 10] | 100 nM
4 | Cn1cnc(CNC(=O)c2oc3ccc4cn(C[C@H]5COCCO5)nc4c3c2C(F)(F)F)c1 [Example 11] | 75 nM
5 | Cc1cc2oc(C(=O)NCc3ccn(C)n3)c(C(F)(F)F)c2c2nn(Cc3ccccn3)cc12 [Example 34] | 150 nM
6 | O=C(NCCc1ccccn1)c1oc2ccc3cn(C[C@H]4COCCO4)nc3c2c1C(F)(F)F [Example 27, 2-{[(2S)-1,4-dioxan-2-yl]methyl}-N-[2-(pyridin-2-yl)ethyl]-8-(trifluoromethyl)-2H-furo[2,3-g]indazole-7-carboxamide] | 630 nM
7 | CCc1cc2oc(C(=O)NC[C@@H]3COCCO3)c(C)c2c2nn(C[C@H]3COCCO3)cc12 [Example 44, N-{[(2R)-1,4-dioxan-2-yl]methyl}-2-{[(2S)-1,4-dioxan-2-yl]methyl}-4-ethyl-8-methyl-2H-furo[2,3-g]indazole-7-carboxamide] | 54 nM
8 | O=C(NCc1cnccn1)c1oc2ccc3cn(C[C@H]4COCCO4)nc3c2c1C(F)(F)F [Example 15] | 49 nM
9 | O=C(NC[C@@H]1CCCO1)c1oc2ccc3cn(Cc4ccccn4)nc3c2c1CO [Example 41, 8-(hydroxymethyl)-2-(pyridin-2-ylmethyl)-N-[(2S)-tetrahydrofuran-2-ylmethyl]-2H-furo[2,3-g]indazole-7-carboxamide] | 530 nM
10 | O=C(NCc1cncs1)c1oc2ccc3cn(C[C@H]4COCCO4)nc3c2c1C(F)(F)F [Example 13] | 490 nM
11 | N#Cc1ccnc(CNC(=O)c2oc3ccc4cn(C[C@H]5COCCO5)nc4c3c2C(F)(F)F)c1 [Example 23] | 250 nM
12 | Cc1cn(CCNC(=O)c2oc3ccc4cn(C[C@H]5COCCO5)nc4c3c2C(F)(F)F)nn1 [Example 26] | 14000 nM
13 | O=C(NCc1cccnn1)c1oc2ccc3cn(C[C@H]4COCCO4)nc3c2c1C(F)(F)F [Example 17] | 460 nM
14 | CS(=O)(=O)CCNC(=O)c1oc2ccc3cn(C[C@H]4COCCO4)nc3c2c1C(F)(F)F [Example 9] | 3490 nM
15 | O=C(NCCn1ccnc1)c1oc2ccc3cn(C[C@H]4COCCO4)nc3c2c1C(F)(F)F [Example 25] | 13000 nM
16 | O=C(NC[C@@H]1CCCO1)c1cc2c(ccc3cn(Cc4ccccn4)nc32)o1 [Example 42, 2-(pyridin-2-ylmethyl)-N-[(2S)-tetrahydrofuran-2-ylmethyl]-2H-furo[2,3-g]indazole-7-carboxamide] | 880 nM
17 | O=C(NC[C@@H]1CCCO1)c1cc2c(cc(Br)c3cn(Cc4ccccn4)nc32)o1 [Example 43, 4-bromo-2-(pyridin-2-ylmethyl)-N-[(2S)-tetrahydrofuran-2-ylmethyl]-2H-furo[2,3-g]indazole-7-carboxamide] | 4930 nM
18 | O=C(NCCC1CC1)c1oc2ccc3cn(C[C@H]4COCCO4)nc3c2c1C(F)(F)F [Example 8] | 1040 nM
19 | Cc1ccc(CNC(=O)c2oc3ccc4cn(C[C@H]5COCCO5)nc4c3c2C(F)(F)F)nn1 [Example 21] | 350 nM

Second part, the compound after the results:

Row | IC50 | Structure (SMILES)
20 | 18 nM | O=C(NCc1nccs1)c1oc2ccc3cn(C[C@H]4COCCO4)nc3c2c1C(F)(F)F [Example 12]
21 | 7 nM | Cc1ccc(Cn2cc3ccc4oc(C(=O)NC[C@@H]5COCCO5)c(C(F)(F)F)c4c3n2)cn1 [Example 3, N-{[(2R)-1,4-dioxan-2-yl]methyl}-2-[(6-methylpyridin-3-yl)methyl]-8-(trifluoromethyl)-2H-furo[2,3-g]indazole-7-carboxamide]
22 | 5 nM | Cc1ccc(Cn2cc3c(C)cc4oc(C(=O)NC[C@@H]5COCCO5)c(C(F)(F)F)c4c3n2)nc1 [Example 36, N-{[(2R)-1,4-dioxan-2-yl]methyl}-4-methyl-2-[(5-methylpyridin-2-yl)methyl]-8-(trifluoromethyl)-2H-furo[2,3-g]indazole-7-carboxamide]
23 | 13 nM | N#Cc1ccc(CNC(=O)c2oc3ccc4cn(C[C@H]5COCCO5)nc4c3c2C(F)(F)F)nc1 [Example 22]
24 | 32 nM | Cc1cc2oc(C(=O)NC[C@@H]3COCCO3)c(C(F)(F)F)c2c2nn(C[C@H]3COCCO3)cc12 [Example 39, N-{[(2R)-1,4-dioxan-2-yl]methyl}-2-{[(2S)-1,4-dioxan-2-yl]methyl}-4-methyl-8-(trifluoromethyl)-2H-furo[2,3-g]indazole-7-carboxamide]
25 | 11 nM | O=C(NCC1CC(F)(F)CO1)c1oc2ccc3cn(C[C@H]4COCCO4)nc3c2c1C(F)(F)F (mixture of isomers) [Example 6]
26 | 18 nM | Cc1cnc(CNC(=O)c2oc3ccc4cn(C[C@H]5COCCO5)nc4c3c2C(F)(F)F)cn1 [Example 20, 2-{[(2S)-1,4-dioxan-2-yl]methyl}-N-[(5-methylpyrazin-2-yl)methyl]-8-(trifluoromethyl)-2H-furo[2,3-g]indazole-7-carboxamide]
27 | 13 nM | Cc1cc2oc(C(=O)NC[C@@H]3CCCO3)c(C(F)(F)F)c2c2nn(Cc3ccncc3)cc12 [Example 31]
28 | 48 nM | O=C(NCc1ncccn1)c1oc2ccc3cn(C[C@H]4COCCO4)nc3c2c1C(F)(F)F [Example 14]
29 | 4 nM | Cc1ccc(Cn2cc3c(C)cc4oc(C(=O)NC[C@@H]5CCCO5)c(C(F)(F)F)c4c3n2)nc1 [Example 35]
30 | 7 nM | O=C(NC[C@@H]1CCCO1)c1oc2ccc3cn(C[C@H]4COCCO4)nc3c2c1C(F)(F)F [Example 2]
31 | 26 nM | Cc1cc2oc(C(=O)NC[C@@H]3COCCO3)c(C(F)(F)F)c2c2nn(Cc3ccccn3)cc12 [Example 30]
32 | 7 nM | Cc1ccc(CNC(=O)c2oc3ccc4cn(C[C@H]5COCCO5)nc4c3c2C(F)(F)F)nc1 [Example 18, 2-{[(2S)-1,4-dioxan-2-yl]methyl}-N-[(5-methylpyridin-2-yl)methyl]-8-(trifluoromethyl)-2H-furo[2,3-g]indazole-7-carboxamide]
33 | 16 nM | Cc1c(C(=O)NC[C@@H]2CCCO2)oc2ccc3cn(Cc4ccccn4)nc3c12 [Example 40, 8-methyl-2-(pyridin-2-ylmethyl)-N-[(2S)-tetrahydrofuran-2-ylmethyl]-2H-furo[2,3-g]indazole-7-carboxamide]
34 | 18 nM | Cc1ccc(Cn2cc3c(C)cc4oc(C(=O)NCc5ncco5)c(C(F)(F)F)c4c3n2)nc1 [Example 37, 4-methyl-2-[(5-methylpyridin-2-yl)methyl]-N-[(1,3-oxazol-2-yl)methyl]-8-(trifluoromethyl)-2H-furo[2,3-g]indazole-7-carboxamide]
35 | 13 nM | CC1CCC(CNC(=O)c2oc3ccc4cn(C[C@H]5COCCO5)nc4c3c2C(F)(F)F)O1 (mixture of isomers) [Example 7, 2-{[(2S)-1,4-dioxan-2-yl]methyl}-N-{[(2RS,5RS)-5-methyltetrahydrofuran-2-yl]methyl}-8-(trifluoromethyl)-2H-furo[2,3-g]indazole-7-carboxamide]
36 | 21 nM | Cc1cc2oc(C(=O)NC[C@@H]3CCCO3)c(C(F)(F)F)c2c2nn(C[C@H]3COCCO3)cc12 [Example 38]
37 | 16 nM | Cc1cc2oc(C(=O)NC[C@@H]3CCCO3)c(C(F)(F)F)c2c2nn(Cc3ccccn3)cc12 [Example 29]
38 | 9 nM | CC1(C)COC(CNC(=O)c2oc3ccc4cn(C[C@H]5COCCO5)nc4c3c2C(F)(F)F)C1 (mixture of isomers) [Example 5]
